The nature of series [1]: Prodrug in vivo pharmacokinetics in dogs after intravenous administration (LC-MS-MS of prodrug and parent). The conditions noted are these: Example 31 in plasma, IV Example 31 at 0.7 mg/kg; for % AUC Extrap / AUC Extrap / Co / Rate Constant / T½ / AUC: Beagle dogs; for clearance / Vd: beagle, dog, in vivo, iv, 0.7 mg/kg; for clearance: CL; for Vd: Vdss.
Description: (§1) Pharmacokinetic parameters derived from the plasma analytical data were determined using Watson LIMS 7.2.003 (Thermo Fisher Scientific, Waltham, Mass.).
The nature of series [2]: Prodrug in vivo pharmacokinetics in rats after intravenous administration (LC-MS-MS of prodrug and parent). The note with it: for % AUC Extrap / AUC / AUC Extrap / Co / Rate Constant / T½ / Vd: Example 31 in plasma, Wistar Hann rats, IV Example 31 at 1.48 mg/kg; for Vd: Vdss.
Description: as §1
The target in series [3] is T1, human recombinant Monoacylglycerol Lipase (Homo sapiens, UniProt Q99685).
T1 sequence (Q99685 1-303): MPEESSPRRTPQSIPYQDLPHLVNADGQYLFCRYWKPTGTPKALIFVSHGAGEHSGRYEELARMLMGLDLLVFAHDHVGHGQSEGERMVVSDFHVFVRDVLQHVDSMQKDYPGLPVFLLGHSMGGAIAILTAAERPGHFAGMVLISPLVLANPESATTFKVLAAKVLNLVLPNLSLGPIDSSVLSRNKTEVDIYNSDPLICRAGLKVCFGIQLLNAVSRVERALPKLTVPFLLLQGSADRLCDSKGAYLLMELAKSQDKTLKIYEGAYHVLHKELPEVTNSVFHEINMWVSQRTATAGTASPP
Description: MAGL inhibition enzymatic assay, fluorogenic substrate 7-HCA, IC50 at T=0 min or after 30 minute incubation (T=30 min). Type of series: biochemical. The conditions noted are these: geometric mean of 2-4 determinations unless otherwise indicated. The procedure:
An equal volume of 7-HCA in assay buffer with 10% DMSO was added either immediately (T=0 min) or after a 30 minute incubation (T=30 min) to initiate the reaction. […] After these dilutions, the final concentration of the test compound ranged from 3 μM to 0.03 nM. […] IC50 values were generated based on a four parameter fit model using ABASE software from IDBS.

Series [4] addresses T1, human recombinant Monoacylglycerol Lipase. The experiment in a line: MAGL inactivation, enzyme progress curves, kinact/KI. Type of series: biochemical. The conditions noted are these: from enzyme progress curves, T = 0 min protocol; geometric mean of 2-4 determinations unless otherwise indicated. In a few lines: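 Human recombinant MAGL ([…]) with compound, 7-HCA substrate (final 5 μM) added immediately (T=0 min), in pH 7.4 HEPES buffer with 0.1% Triton X-100 and 25% glycerin. Fluorescence (Ex/Em 340/465) was read every minute over 60 min, giving progress curves at decreasing compound concentrations (final 3 μM to 0.03 nM).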

In another series the target is T2, human recombinant FAAH (Homo sapiens, UniProt O00519).
T2 construct: purchased Cayman 10010183
T2 sequence (O00519 1-579): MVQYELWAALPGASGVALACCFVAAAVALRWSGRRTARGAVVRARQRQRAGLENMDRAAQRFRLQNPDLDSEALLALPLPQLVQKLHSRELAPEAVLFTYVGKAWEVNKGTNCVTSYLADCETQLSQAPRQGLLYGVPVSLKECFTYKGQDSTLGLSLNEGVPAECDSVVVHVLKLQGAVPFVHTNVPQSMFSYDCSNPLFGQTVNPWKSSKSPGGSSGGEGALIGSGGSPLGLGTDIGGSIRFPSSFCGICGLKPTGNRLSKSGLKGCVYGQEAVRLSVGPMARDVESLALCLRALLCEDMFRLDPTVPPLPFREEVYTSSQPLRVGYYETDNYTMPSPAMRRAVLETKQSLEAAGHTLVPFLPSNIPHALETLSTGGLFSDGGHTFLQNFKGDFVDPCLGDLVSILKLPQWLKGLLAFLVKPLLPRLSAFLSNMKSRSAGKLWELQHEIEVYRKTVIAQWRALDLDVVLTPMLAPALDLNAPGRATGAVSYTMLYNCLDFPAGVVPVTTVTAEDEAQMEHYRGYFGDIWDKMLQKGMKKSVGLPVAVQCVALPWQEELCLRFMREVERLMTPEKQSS
Description: FAAH inhibition enzymatic assay, fluorescent substrate Arachidonoyl-AMC, 30 minute incubation. Type of series: biochemical. The note with it: T = 30 min (30 minute incubation); geometric mean of 2-4 determinations unless otherwise indicated.

Setting [5] is: T = 0 min (substrate added immediately), read-out: MAGL (T = 0 min) IC50.
Setting [6] is: T = 30 min (30 minute incubation), read-out: MAGL (T = 30 min) IC50.

Each structure is given as a SMILES string. Read-outs that look alike come from different tables or passages of the source.

The term AUC denotes the area under the concentration-time curve, a measure of exposure. By clearance is commonly meant a measure of how efficiently the substance is removed, as volume per time. The Vd is a proportionality between amount in the body and measured concentration, not a real space. Broadly, the IC50 is the concentration that inhibits the measured activity by half. For the compound `O=C(O[C@H](COP(=O)([O-])[O-])C(F)(F)F)N1CCC2(CC1)C[C@@H](NS(=O)(=O)c1ccccc1)CO2.[Na+].[Na+]` [Example 31, (2R)-3,3,3-Trifluoro-2-[({(3R)-3-[(phenylsulfonyl)amino]-1-oxa-8-azaspiro[4.5]dec-8-yl}carbonyl)oxy]propyl phosphate, disodium salt], the “% AUC Extrap” value was found to be 0.181% in series [1] (Dog 01); 0.103% in series [1] (Dog 02); 0.142% in series [1] (Mean); 1.41% in series [2] (Mean); 1.19% in series [2] (Rat 01); 1.62% in series [2] (Rat 02). Besides, the “AUC Extrap” value was 108 ng·h/mL in series [1] (Dog 01); 53.9 ng·h/mL in series [1] (Dog 02); 81.0 ng·h/mL in series [1] (Mean); 43.6 ng·h/mL in series [2] (Mean); 43.6 ng·h/mL in series [2] (Rat 01); 43.6 ng·h/mL in series [2] (Rat 02). Moreover, the Co in series [1] (Dog 01) turned out to be 1630 ng/mL; in series [1] (Dog 02) it was 821 ng/mL; in series [1] (Mean), 1230 ng/mL; in series [2] (Mean), 476 ng/mL; in series [2] (Rat 01), 399 ng/mL; in series [2] (Rat 02), 553 ng/mL. In addition, the “Rate Constant” value in series [1] (Dog 01) was determined as 11.3 h⁻¹; in series [1] (Dog 02), 11.2 h⁻¹; in series [1] (Mean) it was 11.3 h⁻¹; in series [2] (Mean) it was 12.1 h⁻¹; in series [2] (Rat 01) it was 8.61 h⁻¹; in series [2] (Rat 02) it was 15.6 h⁻¹. For the same compound, the T½ came out at 3.68 min in series [1] (Dog 01); 3.72 min in series [1] (Dog 02); 3.7 min in series [1] (Mean); 3.75 min in series [2] (Mean); 4.83 min in series [2] (Rat 01); 2.67 min in series [2] (Rat 02). Besides, the AUC in series [1] (Dog 01, AUC interval 0-0.5 Hours) is 108 ng·h/mL; in series [1] (Dog 02, AUC interval 0-0.5 Hours) it was 53.8 ng·h/mL; in series [1] (Mean), 80.9 ng·h/mL; in series [2] (Mean) it was 43.0 ng·h/mL; in series [2] (Rat 01, AUC interval 0-0.5 Hours) it was 43.1 ng·h/mL; in series [2] (Rat 02, AUC interval 0-0.25 Hours) it was 42.9 ng·h/mL. The clearance in series [1] (Dog 01) stood at 108 mL/min/kg; in series [1] (Dog 02), 216 mL/min/kg; in series [1] (Mean), 162 mL/min/kg; in series [2] (Wistar Hann, rat, in vivo, iv, 1.48 mg/kg), 566 mL/min/kg. The Vd in series [1] (Dog 01) came to 0.235 L/kg; in series [1] (Dog 02), 0.465 L/kg; in series [1] (Mean) it was 0.35 L/kg; in series [2] (Wistar Hann, rat, in vivo, iv, 1.48 mg/kg, Mean), 2.23 L/kg; in series [2] (Wistar Hann, rat, in vivo, iv, 1.48 mg/kg, Rat 01) it was 2.86 L/kg; in series [2] (Wistar Hann, rat, in vivo, iv, 1.48 mg/kg, Rat 02) it was 1.59 L/kg. Besides, the IC50 in series [3] (setting [5]) and in series [3] (setting [6]) was > 3000 nM each time.
As for `CN(C(=O)c1cccc(F)c1)[C@H]1COC2(CCN(C(=O)O[C@H](CO)C(F)(F)F)CC2)C1` [Example 141], the “MAGL kinact/KI” value in series [4] is 3519 1/s per M. For the same compound, the IC50 at human recombinant FAAH is > 30000 nM; in series [3] (setting [5]), 77 nM; in series [3] (setting [6]) it was 7 nM.
For the compound `CN(C(=O)C1CCC1)[C@H]1COC2(CCN(C(=O)O[C@H](CO)C(F)(F)F)CC2)C1` [Example 142], the “MAGL kinact/KI” value in series [4] is reported as 3961 1/s per M. Also, the figures for the IC50 (at human recombinant FAAH; in series [3] (setting [5]); in series [3] (setting [6])) were > 30000 nM, 84 nM and 9 nM, respectively.
For `CN(C(=O)CC1CCC1)[C@H]1COC2(CCN(C(=O)O[C@H](CO)C(F)(F)F)CC2)C1` [Example 143], in that order: 2585 1/s per M, > 30000 nM, 96 nM and 10 nM.
Turning to `CC(C)CC(=O)N(C)[C@H]1COC2(CCN(C(=O)O[C@H](CO)C(F)(F)F)CC2)C1` [Example 144], in series [4], the “MAGL kinact/KI” value is listed as 2802 1/s per M. Moreover, the IC50 was > 30000 nM at human recombinant FAAH, 105 nM in series [3] (setting [5]) and 10 nM in series [3] (setting [6]).
`CN(C(=O)CC1CC1)[C@H]1COC2(CCN(C(=O)O[C@H](CO)C(F)(F)F)CC2)C1` [Example 145]: the “MAGL kinact/KI” value in series [4] is 1476 1/s per M. For the same compound, the IC50 was > 30000 nM on human recombinant FAAH, 198 nM in series [3] (setting [5]) and 19 nM in series [3] (setting [6]).

The values above are taken from patent US10723711B2, “1,1,1-trifluoro-3-hydroxypropan-2-yl carbamate derivatives and 1,1,1-trifluoro-4-hydroxybutan-2-yl carbamate derivatives as MAGL inhibitors” (PFIZER INC., priority 2015, dated 2020).
